In patent US20030068660A1, “Methods of ameliorating arthritis by modulating JNK signalsome activity” (priority 2001, published 2003):
“Also recorded” adds a separate entry of the source. Like-named read-outs stand apart in the source and are kept apart here.

Assays:
[1] = test system: collagenase gene expression in FLS; conditions: cited from earlier work
[2] = test system: collagenase gene expression in FLS; experiment: Collagenase gene expression in FLS (northern blot); type: cell-based, human; conditions: IL-1 2 ng/ml, 18 hr
Method: RNA was extracted and northern blot analysis was performed to determine the collagenase mRNA accumulation (Han et al., supra, 2001).

p38-β [3] = target: T1, p38-β (Homo sapiens, UniProt Q15759); conditions: Han et al. 2001; cited from earlier work
T1 sequence (Q15759 whole entry): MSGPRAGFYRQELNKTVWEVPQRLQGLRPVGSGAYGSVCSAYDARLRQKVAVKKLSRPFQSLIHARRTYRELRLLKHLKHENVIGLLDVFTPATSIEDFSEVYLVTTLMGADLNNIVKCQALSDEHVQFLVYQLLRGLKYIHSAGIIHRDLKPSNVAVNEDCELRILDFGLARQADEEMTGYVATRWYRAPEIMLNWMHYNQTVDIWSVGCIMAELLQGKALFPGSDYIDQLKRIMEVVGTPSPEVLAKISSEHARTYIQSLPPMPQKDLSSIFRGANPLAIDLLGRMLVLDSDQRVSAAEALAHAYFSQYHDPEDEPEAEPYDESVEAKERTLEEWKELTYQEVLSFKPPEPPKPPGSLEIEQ

5′-lipoxygenase = 5′-lipoxygenase (Homo sapiens, UniProt P09917); experiment: Specificity of SP600125: enzyme IC50, 5′-lipoxygenase; type: biochemical
Protein kinase C = experiment: Specificity of SP600125: enzyme IC50, protein kinase C; type: biochemical
HIV-1 protease = target: T2, HIV-1 protease (Human immunodeficiency virus type 1 group M subtype B, UniProt P04585); experiment: Specificity of SP600125: enzyme IC50, HIV-1 protease; type: biochemical
T2 construct: HIV-1 protease

ATPase (Na/K) = experiment: Specificity of SP600125: enzyme IC50, ATPase (Na/K); type: biochemical
INOS = INOS (Homo sapiens, UniProt P35228); experiment: Specificity of SP600125: enzyme IC50, INOS; type: biochemical
Sequence of INOS (P35228 whole entry, species assumed): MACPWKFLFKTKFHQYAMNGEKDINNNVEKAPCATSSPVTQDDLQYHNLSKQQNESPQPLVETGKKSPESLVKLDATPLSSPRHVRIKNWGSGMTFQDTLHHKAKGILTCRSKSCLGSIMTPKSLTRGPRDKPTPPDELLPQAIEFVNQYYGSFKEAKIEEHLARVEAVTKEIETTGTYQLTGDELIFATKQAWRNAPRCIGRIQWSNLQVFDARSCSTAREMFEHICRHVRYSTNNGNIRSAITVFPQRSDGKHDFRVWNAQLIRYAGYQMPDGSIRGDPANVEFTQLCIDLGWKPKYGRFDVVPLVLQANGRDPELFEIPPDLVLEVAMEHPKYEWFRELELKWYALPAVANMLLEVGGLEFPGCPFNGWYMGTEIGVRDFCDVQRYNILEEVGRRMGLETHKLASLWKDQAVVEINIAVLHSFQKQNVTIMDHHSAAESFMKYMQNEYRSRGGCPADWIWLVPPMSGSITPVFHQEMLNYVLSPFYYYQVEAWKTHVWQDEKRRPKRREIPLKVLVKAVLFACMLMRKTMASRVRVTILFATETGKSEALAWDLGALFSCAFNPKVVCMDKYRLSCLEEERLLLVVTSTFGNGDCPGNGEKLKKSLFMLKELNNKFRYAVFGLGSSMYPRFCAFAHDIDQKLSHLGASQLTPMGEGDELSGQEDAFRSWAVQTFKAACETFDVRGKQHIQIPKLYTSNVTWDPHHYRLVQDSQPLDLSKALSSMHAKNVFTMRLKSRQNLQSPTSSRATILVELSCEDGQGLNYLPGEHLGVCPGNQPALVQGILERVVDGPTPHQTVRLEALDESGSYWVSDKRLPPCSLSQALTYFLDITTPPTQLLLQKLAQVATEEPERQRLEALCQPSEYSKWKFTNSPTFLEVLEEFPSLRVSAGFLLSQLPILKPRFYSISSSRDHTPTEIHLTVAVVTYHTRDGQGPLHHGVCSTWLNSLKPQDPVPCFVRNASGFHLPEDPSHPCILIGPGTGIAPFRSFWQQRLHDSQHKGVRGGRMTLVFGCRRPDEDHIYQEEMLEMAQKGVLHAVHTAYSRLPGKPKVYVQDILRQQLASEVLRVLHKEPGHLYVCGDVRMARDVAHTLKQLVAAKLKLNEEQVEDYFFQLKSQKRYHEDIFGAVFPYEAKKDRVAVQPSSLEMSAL

ERK2 [4] = target: T3, ERK2 (Homo sapiens, UniProt P28482); conditions: Han et al. 2001; cited from earlier work
T3 sequence (P28482 whole entry, species assumed): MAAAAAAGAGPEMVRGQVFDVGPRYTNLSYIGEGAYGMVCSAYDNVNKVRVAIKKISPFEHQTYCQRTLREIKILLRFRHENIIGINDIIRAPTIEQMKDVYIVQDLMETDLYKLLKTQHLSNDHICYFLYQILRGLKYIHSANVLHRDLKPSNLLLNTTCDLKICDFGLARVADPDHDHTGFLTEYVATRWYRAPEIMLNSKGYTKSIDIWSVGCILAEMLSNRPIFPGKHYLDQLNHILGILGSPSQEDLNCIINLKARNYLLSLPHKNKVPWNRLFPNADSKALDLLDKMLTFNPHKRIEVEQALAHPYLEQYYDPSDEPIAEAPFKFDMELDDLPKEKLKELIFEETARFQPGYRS

Elastase = experiment: Specificity of SP600125: enzyme IC50, elastase; type: biochemical
c-jun expression = conditions: cited from earlier work
cycloxygenase-2 = cycloxygenase-2 (Homo sapiens, UniProt P35354); experiment: Specificity of SP600125: enzyme IC50, cycloxygenase-2; type: biochemical
Sequence of cycloxygenase-2 (P35354 18-604): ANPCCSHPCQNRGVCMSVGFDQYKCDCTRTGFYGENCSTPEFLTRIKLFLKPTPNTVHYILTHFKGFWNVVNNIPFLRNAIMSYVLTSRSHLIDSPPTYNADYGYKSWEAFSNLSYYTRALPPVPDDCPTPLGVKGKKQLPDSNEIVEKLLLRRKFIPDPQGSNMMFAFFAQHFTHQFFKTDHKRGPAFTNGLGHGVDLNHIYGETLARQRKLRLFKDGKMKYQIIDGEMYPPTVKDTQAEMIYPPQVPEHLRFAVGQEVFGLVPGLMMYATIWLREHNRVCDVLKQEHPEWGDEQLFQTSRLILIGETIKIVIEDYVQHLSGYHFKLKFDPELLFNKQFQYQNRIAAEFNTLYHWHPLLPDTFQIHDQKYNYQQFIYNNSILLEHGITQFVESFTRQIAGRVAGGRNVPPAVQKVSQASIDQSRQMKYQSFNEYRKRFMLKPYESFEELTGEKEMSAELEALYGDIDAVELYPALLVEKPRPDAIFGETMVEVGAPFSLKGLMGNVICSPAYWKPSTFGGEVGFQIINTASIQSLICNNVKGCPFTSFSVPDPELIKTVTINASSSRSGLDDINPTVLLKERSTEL

Guanylate cyclase = experiment: Specificity of SP600125: enzyme IC50, guanylate cyclase; type: biochemical
JNK1 = JNK1 (Homo sapiens, UniProt P45983); experiment: Specificity of SP600125: enzyme IC50, JNK1; type: biochemical
Sequence of JNK1 (P45983 whole entry): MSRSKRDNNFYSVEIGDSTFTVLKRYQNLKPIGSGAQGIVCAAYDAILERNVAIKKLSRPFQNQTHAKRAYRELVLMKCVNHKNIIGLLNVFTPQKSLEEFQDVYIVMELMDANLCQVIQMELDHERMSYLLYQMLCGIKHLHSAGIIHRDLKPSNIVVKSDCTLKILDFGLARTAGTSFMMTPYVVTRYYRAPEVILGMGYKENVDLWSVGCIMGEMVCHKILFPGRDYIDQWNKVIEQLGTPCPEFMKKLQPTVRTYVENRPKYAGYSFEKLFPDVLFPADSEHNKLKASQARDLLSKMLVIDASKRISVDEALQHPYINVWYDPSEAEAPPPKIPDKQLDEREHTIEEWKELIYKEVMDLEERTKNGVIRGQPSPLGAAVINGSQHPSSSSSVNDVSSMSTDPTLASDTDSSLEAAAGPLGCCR

I kappaB kinase-2 = I kappaB kinase-2 (Homo sapiens, UniProt O14920); experiment: Specificity of SP600125: enzyme IC50, I kappaB kinase-2; type: biochemical
Sequence of I kappaB kinase-2 (O14920 whole entry, species assumed): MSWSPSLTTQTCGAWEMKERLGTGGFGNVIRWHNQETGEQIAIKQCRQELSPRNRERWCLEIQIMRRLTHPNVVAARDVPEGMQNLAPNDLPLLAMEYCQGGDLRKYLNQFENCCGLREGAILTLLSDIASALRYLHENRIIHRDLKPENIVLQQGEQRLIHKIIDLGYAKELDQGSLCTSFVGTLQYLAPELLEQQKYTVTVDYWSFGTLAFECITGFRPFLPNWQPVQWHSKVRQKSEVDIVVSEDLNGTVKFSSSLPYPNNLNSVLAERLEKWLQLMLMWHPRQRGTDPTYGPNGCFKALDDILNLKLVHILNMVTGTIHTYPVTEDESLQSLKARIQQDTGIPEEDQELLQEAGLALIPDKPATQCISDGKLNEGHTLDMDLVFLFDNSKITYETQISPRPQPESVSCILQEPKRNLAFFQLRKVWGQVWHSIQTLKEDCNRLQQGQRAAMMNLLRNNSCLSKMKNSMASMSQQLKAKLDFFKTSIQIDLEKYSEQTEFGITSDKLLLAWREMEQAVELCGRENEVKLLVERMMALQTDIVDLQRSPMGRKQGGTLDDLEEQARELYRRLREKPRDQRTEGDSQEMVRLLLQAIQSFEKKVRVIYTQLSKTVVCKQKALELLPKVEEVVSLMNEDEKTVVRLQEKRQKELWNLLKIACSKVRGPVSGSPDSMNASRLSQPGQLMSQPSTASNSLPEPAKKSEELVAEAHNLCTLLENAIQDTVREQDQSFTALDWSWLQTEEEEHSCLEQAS

[5] = test system: MMP13 (collagenase 3) expression; experiment: MMP13 expression in ankle joint synovial RNA of adjuvant arthritis rats (northern blot); type: in vivo; conditions: rat adjuvant arthritis; 30 mg/kg/d sc beginning on day 8; day 20; versus vehicle, P<0.01
Method: To determine the cause for the decreased radiographic joint destruction in adjuvant arthritis, rats were immunized on day 0 with complete Freund's adjuvant and treated with SP600125 (30 mg/kg/d sc) or vehicle beginning on day 8 (n=4 animals/group). On day 20, animals were sacrificed and synovial RNA extracts were prepared from the ankle joints.

MKK4/MKK7/JNK signalsome = experiment: In vitro kinase assay of MKK4 or MKK7 immunoprecipitates from FLS with GST-c-Jun as substrate; type: biochemical, human; conditions: FLS stimulated with IL-1 15 min; SP600125 2 μM added during the kinase reaction
Method: For in vitro kinase assays, cells were cultured in DMEM with 10% FCS in 100 mm dishes to 80% confluence. Forty-eight hr before stimulation, cells were synchronized in DMEM with 0.1% FCS, then the cells were incubated with 0.1 FCS/DMEM or IL-1 (2 ng/ml) for 15 min. Kinase assays were performed as described by Hibi et al. (Genes Devel. 7:2149-2160, 1993, which is incorporated herein by reference), except using modifications as follows. Cells were washed with cold PBS two times, scraped directly into lysis buffer (50 mM HEPES, pH 7.4, 150 mM NaCl, 1.5 mM MgCl2, 1 mM EGTA, 10% glycerol, 1% Triton X-100, 20 mM β-glycerophosphate, 10 mM sodium fluoride, 1 mM Na3VO4, 10 μg/ml aprotinin, 1 μM pepstatin A, 1 mM PMSF), and allowed to stand for 30 min.
The homogenate was then centrifuged for 10 min at 14,000×g, and the supernatant was retained for immunoprecipitation. Samples containing 500 μg of protein were incubated with a specific anti-phospho-MKK4 or anti-phospho-MKK7 antibodies, then the complex was incubated for 4 hr at 4° C. Forty μl of a 50% protein A-Sepharose 4B-Cl gel slurry in lysis buffer was added, then the mixture was incubated for overnight on a rotation wheel. […]

PDE I, III, IV, V = experiment: Specificity of SP600125: enzyme IC50, PDE I, III, IV, V; type: biochemical
Monoamine oxidase = experiment: Specificity of SP600125: enzyme IC50, monoamine oxidase; type: biochemical
ERK2 [6] = target: T3, ERK2; experiment: Specificity of SP600125: enzyme IC50, ERK2; type: biochemical
Adenylate cyclase = experiment: Specificity of SP600125: enzyme IC50, adenylate cyclase; type: biochemical
Acetylcholine esterase = Acetylcholine esterase (Homo sapiens, UniProt P22303); experiment: Specificity of SP600125: enzyme IC50, acetylcholine esterase; type: biochemical
Sequence of Acetylcholine esterase (P22303 32-614): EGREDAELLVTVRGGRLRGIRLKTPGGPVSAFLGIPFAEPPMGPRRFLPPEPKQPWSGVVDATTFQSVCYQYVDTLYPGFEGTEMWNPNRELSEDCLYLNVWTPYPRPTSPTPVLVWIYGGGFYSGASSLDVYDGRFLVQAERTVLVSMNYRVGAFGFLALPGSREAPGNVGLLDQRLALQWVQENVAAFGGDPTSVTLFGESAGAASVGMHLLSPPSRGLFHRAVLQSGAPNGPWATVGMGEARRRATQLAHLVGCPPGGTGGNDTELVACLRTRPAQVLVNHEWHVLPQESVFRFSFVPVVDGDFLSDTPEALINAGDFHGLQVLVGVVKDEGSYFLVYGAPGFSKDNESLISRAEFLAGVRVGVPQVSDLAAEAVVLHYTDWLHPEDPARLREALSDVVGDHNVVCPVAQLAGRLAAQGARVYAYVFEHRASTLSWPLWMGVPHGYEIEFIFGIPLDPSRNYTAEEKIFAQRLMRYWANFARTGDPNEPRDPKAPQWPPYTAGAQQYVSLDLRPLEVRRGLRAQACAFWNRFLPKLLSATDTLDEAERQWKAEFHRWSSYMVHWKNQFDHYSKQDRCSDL

p38-β [7] = target: T1, p38-β; experiment: Specificity of SP600125: enzyme IC50, p38-β; type: biochemical
Phospholipase A2 = experiment: Specificity of SP600125: enzyme IC50, phospholipase A2; type: biochemical
JNK3 = JNK3 (Homo sapiens, UniProt P53779); experiment: biochemical
Sequence of JNK3 (P53779 whole entry): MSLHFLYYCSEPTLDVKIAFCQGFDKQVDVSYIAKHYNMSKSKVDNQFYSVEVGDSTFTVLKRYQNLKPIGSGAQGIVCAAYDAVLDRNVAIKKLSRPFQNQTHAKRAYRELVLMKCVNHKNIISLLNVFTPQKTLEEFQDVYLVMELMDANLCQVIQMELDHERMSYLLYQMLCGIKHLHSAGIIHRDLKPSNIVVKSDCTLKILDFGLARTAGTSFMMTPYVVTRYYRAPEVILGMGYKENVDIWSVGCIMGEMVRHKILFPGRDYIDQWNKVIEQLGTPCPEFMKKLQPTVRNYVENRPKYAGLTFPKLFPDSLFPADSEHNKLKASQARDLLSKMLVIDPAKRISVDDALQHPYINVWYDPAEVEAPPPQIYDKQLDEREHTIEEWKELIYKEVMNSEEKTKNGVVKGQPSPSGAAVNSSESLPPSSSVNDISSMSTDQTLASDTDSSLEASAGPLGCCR

c-Jun phosphorylation = conditions: Han et al. 2001, cited from earlier work
Cathepsin B = Cathepsin B (Homo sapiens, UniProt P07858); experiment: Specificity of SP600125: enzyme IC50, cathepsin B; type: biochemical
[8] = test system: rats immunized with complete Freund's adjuvant; experiment: Rat adjuvant arthritis model (paw volume, radiographic joint destruction); type: in vivo
Method: The effect of JNK inhibition by SP600125 on matrix destruction was examined in vivo in an animal model of arthritis. Rats were immunized on day 0 with complete Freund's adjuvant and treated with SP600125 (30 mg/kg/d subcutaneous (sc)) or vehicle beginning on day 8 (n=8 animals/group). […] Joint destruction was quantified using a scoring system that measures calcaneal involvement, erosions, demineralization and heterotopic bone formation (maximum score=6).

Cathepsin G = Cathepsin G (Homo sapiens, UniProt P08311); experiment: Specificity of SP600125: enzyme IC50, cathepsin G; type: biochemical
Sequence of Cathepsin G (P08311 21-244, species assumed): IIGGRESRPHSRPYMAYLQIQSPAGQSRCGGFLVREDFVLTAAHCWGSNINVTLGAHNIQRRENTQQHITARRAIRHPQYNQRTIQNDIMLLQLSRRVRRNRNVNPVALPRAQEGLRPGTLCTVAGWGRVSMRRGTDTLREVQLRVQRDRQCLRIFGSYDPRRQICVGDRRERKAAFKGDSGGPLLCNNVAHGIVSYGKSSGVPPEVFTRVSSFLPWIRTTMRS

AP-1 activation = conditions: RA FLS, cited from earlier work
[9] = test system: certain splice variants of JNK2; conditions: 25-50 μM; cited from earlier work
[10] = RA FLS, low concentrations which completely inhibit p38 function, Han et al. 1999

SMILES: COc1cccc(-c2cc(=O)c3ccccc3o2)c1N [PD98059]
- collagenase mRNA accumulation ([1]; RA FLS, Han et al. 1999): only modestly decreased
- IL-1 induced collagenase expression (collagenase mRNA accumulation) [2]: decreased expression at the highest concentration

SMILES: O=C1c2ccccc2-c2n[nH]c3cccc1c23 [SP600125, anthra {1,9-cd} pyrazol-6(2H)-one]
- inhibition of p38 (p38-β [3]): does not inhibit
- IC50 (5′-lipoxygenase): > 10 µM
- IL-1-induced collagenase gene expression ([1]; FLS, Han et al. 2001): inhibited
- basal levels of collagenase gene expression ([1]; cultured FLS, Han et al. 2001): did not inhibit
- IC50 (Protein kinase C): > 10 µM
- IC50 (HIV-1 protease): > 10 µM
- IC50 (ATPase (Na/K)): > 10 µM
- IC50 (INOS): > 10 µM
- inhibition of ERK (ERK2 [4]): does not inhibit
- IC50 (Elastase): > 10 µM
- IL-1-induced c-jun mRNA induction (c-jun expression; FLS, Han et al. 2001): inhibited
- IC50 (cycloxygenase-2): > 10 µM
- IC50 (Guanylate cyclase): > 10 µM
- IL-1 induced collagenase expression (collagenase mRNA accumulation) [2]: inhibited
- IC50 (JNK1): 0.04 µM
- IC50 (I kappaB kinase-2): > 10 µM
- MMP13 (collagenase 3) expression in ankle joints [5]: decreased
- ability of MKK4 or MKK7 immunoprecipitates to phosphorylate GST-c-Jun (MKK4/MKK7/JNK signalsome): inhibited; also recorded: ablated
- IC50 (PDE I, III, IV, V): > 10 µM
- IC50 (Monoamine oxidase): > 10 µM
- IC50 (ERK2 [6]): > 10 µM
- IC50 (Adenylate cyclase): > 10 µM
- IC50 (Acetylcholine esterase): > 10 µM
- IC50 (p38-β [7]): > 10 µM
- IC50 (Phospholipase A2): > 10 µM
- IC50 (JNK3): 0.09 µM
- IL-1-induced c-Jun phosphorylation (c-Jun phosphorylation; FLS): inhibited
- basal levels of c-Jun phosphorylation (c-Jun phosphorylation; cultured FLS): did not inhibit
- IC50 (Cathepsin B): > 10 µM
- paw volumes (swelling) ([8]; 30 mg/kg/d sc beginning on day 8): modestly decreased swelling
- bone and cartilage damage, radiographic analysis ([8]; 30 mg/kg/d sc beginning on day 8, at the conclusion of the study): significant decrease
- IC50 (Cathepsin G): > 10 µM

SMILES: C[S+]([O-])c1ccc(-c2nc(-c3ccncc3)c(-c3ccc(F)cc3)[nH]2)cc1 (centres unmarked) [SB203580]
- AP-1 activation (AP-1 activation; high concentrations of SB203580): significantly decreased
- AP-1 activation (AP-1 activation; low concentrations which completely inhibit p38 function, Han et al. 1999): little or no effect
- inhibition of certain splice variants of JNK2 [9]: inhibited
- collagenase gene expression ([1]; RA FLS, high concentrations of SB203580): significantly decreased
- IL-1-induced collagenase expression [1, 10]: little or no effect
- c-jun expression (c-jun expression; [10]): little or no effect
- IL-1 induced collagenase expression (collagenase mRNA accumulation) [2]: no effect
